The values that follow come from paper PMC8065691, “Polymerizable Matrix Metalloproteinases’ Inhibitors with Potential Application for Dental Restorations” (Biomedicines, 2021).

Series [1] can be described thus: Cytotoxicity study using MTT assay, NIH/3T3. Particulars: mouse, NIH/3T3 fibroblast cells, extract, 24 h, MTT, mean, read-out: Cell Viability (%) NIH/3T3 M; for viability at 24 h, 20 µM (stock): NIH/3T3, inhibitor concentration 20 μM; for viability at 24 h, 50 µM (stock): NIH/3T3, inhibitor concentration 50 µM; for viability at 24 h, 100 µM (stock): NIH/3T3, inhibitor concentration 100 µM. The series is classed as cell-based, mouse. On the procedure:
(§1) Two cell lines, fibroblastic cells NIH/3T3 from mouse embryo (93061524) obtained from Health Protection Agency Culture Collections and supplied by Sigma and MG-63 osteoblast-like cells from human osteosarcoma (ATCC® CRL-1427^TM) were used for cytotoxicity studies. Defrosting and handling of cell lines was carried out according to supplier information.
(§2) The NIH/3T3 cells were grown in Dulbecco’s Modified Eagle Medium (DMEM, Sigma) supplemented with 10% calf bovine serum (Sigma) and 1% Penicillin-Streptomycin solution: 10,000 U/mL penicillin, 10 mg/mL streptomycin, Sigma) and 2.5 mg/L amphotericin B (fungizone, Sigma). MG-63 cells were grown in Eagle’s Minimum Essential Medium (EMEM, Sigma) supplemented with 10% fetal bovine serum and 1% of antibiotics and 2.5 mg/L antimycotics solutions.
(§3) Extracts from each compound A, B or C were prepared by spreading 20 μL of a solution with 20 μM, 50 μM or 100 μM of each compound in a glass petri dish, allowed to dry, and incubated at 37 °C under humidified 5% CO2 for 24 h with 10 mL of the corresponding growth medium according to ISO 10993–12: 2012.
(§4) The cytotoxicity assay was performed as follows: 1 × 10^4 cells per well, from passages 8 to 12, were seeded in 96-well plates (eight replicates) and incubated at 37 °C under humidified 5% CO2 for 24 h. After proliferation, the cell medium was replaced by 200 μL of each extract and incubated under the same conditions for 24 h. As positive control cells were grown in their medium containing 7.5% DMSO (Sigma) and as negative control cells proliferated in medium without any toxic corresponding to 100% cell viability. MTT assays were performed as previously described. Briefly, extracts or medium were removed, an MTT solution (0.5 mg/mL prepared in serum-free medium, Sigma) was added to each well and cells were incubated for additional 3 h. After that, a solution containing 0.1% IGEPAL (Merck), 4 mM HCl (Sigma) in isopropanol (Sigma) was used to dissolve formazan. Plates were incubated with agitation for one hour and absorbance was read at 595 nm with a microplate reader (Bio-Rad®, Hercules, California, USA).

The subject of another series is NIH/3T3 fibroblast cells. As to the kind of experiment: Cytotoxicity study using MTT assay, NIH/3T3. The series is classed as cell-based, mouse. Conditions: NIH/3T3 cells, 50 and 100 µM. On the procedure:
as §1, §2, §3, §4

For a further series, the system named is MMPs. As to the kind of experiment: Preliminary biochemical tests (not shown). Particulars: data not shown, most MMPs. The source says:
However, there were additional interactions between the compounds and the enzyme depending on the enzyme class (collagenases and gelatinases) (See Appendix B, Appendix C, Appendix D and Appendix E).

The nature of series [2]: Cytotoxicity study using MTT assay, MG-63. It is filed as cell-based. Conditions: human, MG-63 osteoblast-like cells, extract, mean, read-out: Cell Viability (%) MG-63 M; for viability at 24 h, 20 µM (stock): MG-63, inhibitor concentration 20 μM; for viability at 24 h, 50 µM (stock): MG-63, inhibitor concentration 50 µM; for viability at 24 h, 100 µM (stock): MG-63, inhibitor concentration 100 µM. As to the method:
as §1, §2, §3, §4

SMILES strings stand for the structures.

Regarding `C=C(C)C(=O)Oc1ccc(-c2ccc(C#N)cc2)cc1` [Compound A, 4′-cyano-[1,1′-bihenyl]-4-yl methacrylate], in series [1], the viability at 24 h, 20 µM (stock) stood at 85.1%; the viability at 24 h, 50 µM (stock) was 54.2%; the viability at 24 h, 100 µM (stock) was determined as 45.5%. Also, the “toxicity according to ISO 10993–5: 2009 (viable cells decreased more than 30%)” value in the series with NIH/3T3 fibroblast cells is “toxic”. In addition, in the series with MMPs, the MMP activity reduction result is listed as “encouraging indications on activity reduction”. Further, in series [2], the viability at 24 h, 20 µM (stock) was 82.6%; the viability at 24 h, 50 µM (stock) amounted to 73.6%; the viability at 24 h, 100 µM (stock) came to 73%.
Consider `C=C(C)C(=O)OCCCCCOc1ccc(-c2ccc(C#N)cc2)cc1` [Compound B, 5-((4′-cyano-[1,1′-biphenyl]-4-yl)oxy)pentyl methacrylate], for which, in series [1], the viability at 24 h, 20 µM (stock) came out at 78.6%; the viability at 24 h, 50 µM (stock) was 50.5%; the viability at 24 h, 100 µM (stock) stood at 40.5%. Besides, the “toxicity according to ISO 10993–5: 2009 (viable cells decreased more than 30%)” value in the series with NIH/3T3 fibroblast cells is “toxic”. Also, the MMP activity reduction result with MMPs is “encouraging indications on activity reduction”. Further, in series [2], the viability at 24 h, 20 µM (stock) amounted to 78.1%; the viability at 24 h, 50 µM (stock) stood at 70.3%; the viability at 24 h, 100 µM (stock) is 65.9%.
On to `C=C(C)C(=O)Nc1ccc(Oc2ccc(NC(=O)C(=C)C)cc2)cc1` [Compound C, N,N′-(oxybis(4,1-phenylene))bis(2-methylacrylamide)], for which, in series [1], the viability at 24 h, 20 µM (stock) was found to be 83.7%; the viability at 24 h, 50 µM (stock) turned out to be 46.4%; the viability at 24 h, 100 µM (stock) came to 42.4%. Moreover, the “toxicity according to ISO 10993–5: 2009 (viable cells decreased more than 30%)” value in the series on NIH/3T3 fibroblast cells is on record as “toxic”. Besides, the MMP activity reduction entry in the series with MMPs is given as “encouraging indications on activity reduction”. Further, in series [2], the viability at 24 h, 20 µM (stock) was determined as 85%; the viability at 24 h, 50 µM (stock) was 65.8%; the viability at 24 h, 100 µM (stock) came out at 69.2%.
